From PubChem BioAssay (NCI)
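Cultured in 96-well plates, cells were exposed to test compound for 48 hours across five concentrations. GI50: concentration for 50% inhibition of growth. Definition used: TGI = concentration required for complete inhibition of growth.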

Key:
Assay in all cases: growth of human tumour cells (NCI), 48 h
NCI/ADR-RES ovarian = system: NCI/ADR-RES ovarian
LOX IMVI melanoma = system: LOX IMVI melanoma
M14 melanoma = system: M14 melanoma
SNB-19 CNS = system: SNB-19 CNS
MDA-MB-435 = system: MDA-MB-435
SF-268 CNS = system: SF-268 CNS
NCI-H23 lung = system: NCI-H23 lung
HS 578T breast = system: HS 578T breast
CAKI-1 renal = system: CAKI-1 renal
TK-10 renal = system: TK-10 renal

Structure (SMILES) | GI50 (NCI/ADR-RES ovarian) | TGI (NCI/ADR-RES ovarian) | GI50 (LOX IMVI melanoma) | TGI (LOX IMVI melanoma) | GI50 (M14 melanoma) | TGI (M14 melanoma) | GI50 (SNB-19 CNS) | TGI (SNB-19 CNS) | GI50 (MDA-MB-435) | TGI (MDA-MB-435) | GI50 (SF-268 CNS) | TGI (SF-268 CNS) | GI50 (NCI-H23 lung) | TGI (NCI-H23 lung) | GI50 (HS 578T breast) | TGI (HS 578T breast) | GI50 (CAKI-1 renal) | TGI (CAKI-1 renal) | GI50 (TK-10 renal) | TGI (TK-10 renal)
C=C1C(=O)O[C@H]2[C@H]1CC/C(COC(=O)CCCCC(=O)OC/C1=C/CC[C@@]3(C)O[C@H]3[C@H]3OC(=O)C(=C)[C@@H]3CC1)=C\CC[C@@]1(C)O[C@@H]21 | 5.45 µM | > 100 µM | 1.45 µM | 2.9 µM | 1.95 µM | 5.31 µM | 5.99 µM | > 100 µM | 2.39 µM | 8.04 µM | 3.02 µM | > 100 µM | 2.76 µM | 14 µM | 1.97 µM | 8.46 µM |  |  |  | 
CCOc1c(Br)cc(C2C(C(=O)OC)=CN(C)C=C2C(=O)OC)cc1OC | 43.6 µM | > 100 µM | 85.1 µM | > 100 µM | 64.1 µM | > 100 µM | 83.8 µM | > 100 µM | 37.3 µM | > 100 µM | > 100 µM | > 100 µM | 84.9 µM | > 100 µM | 50.4 µM | > 100 µM | 44.3 µM | > 100 µM | > 100 µM | > 100 µM
COC(=O)/C=C1/CCC2[C@@H](C(=O)CC3[C@]2(C)CCC[C@@]3(C)C(=O)OC)C1C (stereo partly specified) |  |  |  |  |  | 29.1 µM |  | 33.4 µM |  |  |  | 38.6 µM |  | 31.6 µM |  |  |  | 17.4 µM |  | 36.1 µM
Cc1cc(N2CCCCC2)nc(N(CCCNc2ccnc3cc(Cl)ccc23)Cc2ccco2)n1 | 1.43 µM | 3.87 µM | 1.24 µM | 2.65 µM | 1.64 µM | 3.4 µM | 2.93 µM | 13.5 µM | 1.65 µM | 3.68 µM | 2.86 µM | 11.9 µM | 1.58 µM | 3.8 µM | 3.02 µM | 11.4 µM |  |  | 2.63 µM | 8.12 µM
CN(C)CCNC(=O)c1cc2ccccc2c2nc3ccccc3nc12 |  |  |  | 1.88 µM |  |  |  | 8.2 µM |  |  |  | 2.02 µM |  | 2.69 µM |  |  |  | > 21.3 µM |  | 7.17 µM
CS(=O)(=O)NNS(=O)(=O)c1cccc([N+](=O)[O-])c1 |  |  |  | > 100 µM |  | > 100 µM |  | > 100 µM |  |  |  |  |  | > 100 µM |  |  |  | > 100 µM |  | > 100 µM
COc1ccc2nc(-c3cc(-c4cc(OC)c(OC)c(OC)c4)n[nH]3)[nH]c2c1 | 2.91 µM | > 100 µM |  |  | 1.66 µM | 4.31 µM | 2.98 µM | 14.1 µM | 1.49 µM | 3.11 µM | 2.74 µM | 9.38 µM | 1.34 µM | 4.91 µM | 2.89 µM | 23.2 µM | 1.79 µM | 5.64 µM | 2.21 µM | 7.58 µM
Cc1ccc(NC(=O)C(=O)C2C(=O)N(c3ccccc3)N=C2N)cc1C (stereo unspecified) |  |  |  |  |  | > 100 µM |  | > 100 µM |  |  |  | > 100 µM |  | > 100 µM |  |  |  | > 100 µM |  | > 100 µM
CC(=O)OC(/C=C1/C=CC(=O)O1)COC(=O)c1ccccc1 (stereo unspecified) |  |  |  | > 31.2 µM |  | > 31.2 µM |  | > 31.2 µM |  |  |  | > 31.2 µM |  | > 31.2 µM |  |  |  | > 31.2 µM |  | > 31.2 µM
CCOC(=O)/C(O)=C(/c1n[nH]c(=O)c2ccccc12)[N+](=O)[O-] |  |  |  | > 100 µM |  | > 100 µM |  | > 100 µM |  |  |  | > 100 µM |  | > 100 µM |  |  |  |  |  | > 100 µM
O=c1cccccc1NCCOCCNc1cccccc1=O |  |  |  | > 100 µM |  | > 100 µM |  | > 100 µM |  |  |  | > 100 µM |  | > 100 µM |  |  |  | > 100 µM |  | > 100 µM
Cc1ccc(NC(=O)CCC(CC(=O)C(C)(C)C)=NNC(=O)C(=O)NN)cc1C |  |  |  | > 100 µM |  | > 100 µM |  | > 100 µM |  |  |  | > 100 µM |  | > 100 µM |  |  |  | > 100 µM |  | > 100 µM
CCOC12OC3=C(CC1CC1=C(CCC1=O)O2)C(=O)CC3 (stereo unspecified) |  |  |  | > 100 µM |  | > 100 µM |  | > 100 µM |  |  |  | > 100 µM |  | > 100 µM |  |  |  | > 100 µM |  | > 100 µM
Cc1cc2c(cc1Cl)SC1=CC(=O)N(c3ccccc3)C1=NS2(=O)=O | 37.8 µM | > 100 µM | 26.2 µM | 61.1 µM | 21 µM | 42.8 µM | 54.5 µM | > 100 µM | > 100 µM | > 100 µM | 92.3 µM | > 100 µM | > 100 µM | > 100 µM |  |  | > 100 µM | > 100 µM | 21.6 µM | 60.3 µM
Cc1cc(NS(=O)(=O)c2ccc(N=Nc3cc(N=Nc4ccc(S(=O)(=O)Nc5cc(C)nc(C)n5)cc4)c4c(NC(=O)C(Cl)Cl)cccc4c3OC(=O)C(Cl)Cl)cc2)nc(C)n1 (tested in a mixture with another compound) |  |  |  | 34.3 µM |  | 70.2 µM |  | 33.6 µM |  |  |  | 98.3 µM |  | 78.3 µM |  |  |  | 78.6 µM |  | 88.1 µM
COc1cc2nc3sc(C(=O)Nc4ccc(C(=O)OC(C)C)cc4)c(C(=O)Nc4ccc(Cl)cc4C)n3c(=O)c2cc1OC | 12.4 µM | > 100 µM | 11.1 µM | 34.4 µM |  |  | 28 µM | 95.3 µM | 9.11 µM | > 100 µM | 9.45 µM | 43.3 µM | 13.6 µM | 40.5 µM | 1.6 µM | 7.7 µM | 26.1 µM | > 100 µM | 2.45 µM | 12.7 µM
COc1cc2c3c(n(CCCCOC(=O)C(F)(F)F)c(=O)c2cc1OC)-c1cc2c(cc1C3=O)OCO2 | > 100 µM | > 100 µM | > 100 µM | > 100 µM |  |  | > 100 µM | > 100 µM | > 100 µM | > 100 µM | > 100 µM | > 100 µM | > 100 µM | > 100 µM | > 93.1 µM | > 100 µM | > 21.8 µM | > 100 µM | > 100 µM | > 100 µM
